# Patent US20260364184A1, “COMPOUND BASED ON OXOISOINDOLINYL-SUBSTITUTED TETRAHYDROPYRIMIDINE-DIONE AND USE THEREOF” (GLUETACS THERAPEUTICS (SHANGHAI) CO., LTD., priority 2023, published 2026)
# Like-named read-outs stand apart in the source and are kept apart here.
# Tests used:
# Type in all cases: cell-based
# [1] = test system: Human Multiple myeloma cell line (MM.1S); experiment: Inhibition of MM.1S cell proliferation (CellTiter luminescent viability); conditions: Homo sapiens, MM1.S, 96 hours; for inhibition at 0.01 µM: 10 nM, read-out: Inhibition Rate at 10 nM (%); for inhibition at 0.5 µM: 500 nM, read-out: Inhibition Rate at 500 nM (%)
# Method: (§1) The tumor cells used herein were cultured in a cell culture medium listed in table 3 at 37 °C in an incubator with 5% CO2. Prior to experimentation, all cell lines used were correctly identified by STR profiling, and tested negative for mycoplasma contamination using a mycoplasma detection kit through routine screenings.
# (§2) The IC50 values of the compounds of the present disclosure (including the compounds in Table 1, Table 2, and Examples 1-468) were determined using the CellTiter-Meiluncell Luminescent Cell Viability Assay Kit from Dalian Meilun Biotech Co., Ltd. The detailed procedure is as follows: Tumor cells were seeded in 96-well cell culture plates at the densities specified in Table 4. On the following day, the test compounds of the present disclosure were subjected to serial dilution. The dilution can be performed according to one of the following two methods: • (1) The first dilution method: The test compounds of the present disclosure (including the compounds in Table 1, Table 2, and Examples 1-468) were subjected to 5-fold serial dilutions starting from a highest concentration of 2000 μM, resulting in a total of 9 concentrations from high to low (2000, 400, 80, 16, 3.2, 0.64, 0.128, 0.0256, 0.00512 μM). Subsequently, 0.5 μL of the test compound dilution was transferred into the 96-well plate containing the cells, with each well containing 100 μL of cell culture medium. […] Into the 96-well plate, the diluted test compounds and corresponding detection reagents were added, resulting in final test compound concentrations of 500 nM and 10 nM, respectively. The experimental procedure is described below using the diluted 2 μM test compound as an example.
# (§3) 0.5 μL of the aforementioned diluted compound of the present disclosure (including the compounds in Table 1, Table 2, and Examples 1-468) was added to the seeded cells in 100 μL of medium, yielding a final test compound concentration of 10 nM. After the cells were treated with the compounds of the present disclosure for a specified period, the cell viability assay reagent was added to the culture medium according to the kit's instructions to determine cell viability. […] All controls were treated using the same procedure as the compounds of the present disclosure. The growth inhibition curves for the compounds of the present disclosure were plotted using Prism GraphPad software, and the IC50 values were calculated therefrom.
# [2] = test system: Human acute lymphocytic leukemia T lymphocytes cell line (CCRF-CEM); experiment: Inhibition of CCRF-CEM cell proliferation (CellTiter luminescent viability); conditions: Homo sapiens, 96 h; for inhibition at 0.01 µM: 10 nM, read-out: Inhibition Rate at 10 nM (%); for inhibition at 0.5 µM: 500 nM, read-out: Inhibition Rate at 500 nM (%)
# Method: as §1, §2, §3
# [3] = test system: Human myeloid monocytic leukemia cell line (MV-4-11); experiment: Inhibition of MV-4-11 cell proliferation (CellTiter luminescent viability); conditions: Homo sapiens, MV4-11, 96 hours; for inhibition at 0.01 µM: MV-4-11, 10 nM, read-out: Inhibition Rate at 10 nM (%); for inhibition at 0.5 µM: MV-4-11, 500 nM, read-out: Inhibition Rate at 500 nM (%)
# Method: as §1, §2, §3
# [4] = Table IL1, BCR-ABL inhibitor-based
# [5] = Table IL3, BCR-ABL inhibitor-based
# [6] = Table IL2, BCR-ABL inhibitor-based
compound,measurement,setting,value
"CNC(=O)c1ccccc1Nc1cc(Nc2cc(C)c(C3CCN(Cc4ccc5c(c4)C(=O)N(N4CCC(=O)NC4=O)C5=O)CC3)cc2OC(C)C)ncc1C(F)(F)F [GT-07664, 2-((2-((4-(1-((2-(2,4-dioxotetrahydropyrimidin-1(2H)-yl)-1,3-dioxoisoindolin-5-yl)methyl)piperidin-4-yl)-2-isopropoxy-5-methylphenyl)amino)-5-(trifluoromethyl)pyridin-4-yl)amino)-N-methylbenzamide]",inhibition at 0.01 µM,"[1]; Table IG1, FAK inhibitor-based",20 to 30%
same,inhibition at 0.5 µM,"[1]; Table IG1, FAK inhibitor-based",40 to 60%
"Cc1ccc(C(=O)Nc2ccc(N3CCN(CC4CCN(c5ccc6c(c5)C(=O)N(N5CCC(=O)NC5=O)C6=O)CC4)CC3)c(C(F)(F)F)c2)cc1C#Cc1cnc2cccnn12 [GT-08354, N-(4-(4-((1-(2-(2,4-dioxotetrahydropyrimidin-1(2H)-yl)-1,3-dioxoisoindolin-5-yl)piperidin-4-yl)methyl)piperazin-1-yl)-3-(trifluoromethyl)phenyl)-3-(imidazo[1,2-b]pyridazin-3-ylethynyl)-4-methylbenzamide]",inhibition at 0.01 µM,[1]; [4],15 to 20%
same,inhibition at 0.5 µM,[1]; [4],20 to 30%
"O=C1CCN(N2C(=O)c3ccc(CN4CCC(N5CCN(c6ncc(C(=O)Nc7ccc(OC(F)(F)Cl)cc7)cc6-c6cc[nH]n6)CC5)CC4)cc3C2=O)C(=O)N1 [GT-08225, N-(4-(chlorodifluoromethoxy)phenyl)-6-(4-(1-((2-(2,4-dioxotetrahydropyrimidin-1(2H)-yl)-1,3-dioxoisoindolin-5-yl)methyl)piperidin-4-yl)piperazin-1-yl)-5-(1H-pyrazol-3-yl)nicotinamide]",inhibition at 0.01 µM,[2]; [5],10 to 15%
same,inhibition at 0.5 µM,[2]; [5],30 to 40%
"O=C1CCN(N2C(=O)c3ccc(CN4CCN(c5ccc(-c6ccc7c8cnccc8n(CC(F)(F)F)c7c6)cn5)CC4)cc3C2=O)C(=O)N1 [GT-08544, 2-(2,4-dioxotetrahydropyrimidin-1(2H)-yl)-5-((4-(5-(5-(2,2,2-trifluoroethyl)-5H-pyrido[4,3-b]indol-7-yl)pyridin-2-yl)piperazin-1-yl)methyl)isoindoline-1,3-dione]",inhibition at 0.01 µM,"[1]; Table IJ1, Tau inhibitor-based",30 to 40%
same,inhibition at 0.5 µM,"[1]; Table IJ1, Tau inhibitor-based",40 to 50%
"CN(c1cccc(CNc2nc(Nc3ccc(N4CCN(CC5CCN(c6ccc7c(c6)C(=O)N(N6CCC(=O)NC6=O)C7=O)CC5)CC4)cc3)ncc2C(F)(F)F)c1)S(C)(=O)=O [GT-08246, N-(3-(((2-((4-(4-((1-(2-(2,4-dioxotetrahydropyrimidin-1(2H)-yl)-1,3-dioxoisoindolin-5-yl)piperidin-4-yl)methyl)piperazin-1-yl)phenyl)amino)-5-(trifluoromethyl)pyrimidin-4-yl)amino)methyl)phenyl)-N-methylmethanesulfonamide]",inhibition at 0.01 µM,"[1]; Table IG1, FAK inhibitor-based",30 to 40%
same,inhibition at 0.5 µM,"[1]; Table IG1, FAK inhibitor-based",30 to 40%
"O=C1CCN(N2Cc3cc(CN4CCN(C5CCN(c6ncc(C(=O)Nc7ccc(OC(F)(F)Cl)cc7)cc6-c6cc[nH]n6)CC5)CC4)ccc3C2=O)C(=O)N1 [GT-08226, N-(4-(chlorodifluoromethoxy)phenyl)-6-(4-(4-((2-(2,4-dioxotetrahydropyrimidin-1(2H)-yl)-1-oxoisoindolin-5-yl)methyl)piperazin-1-yl)piperidin-1-yl)-5-(1H-pyrazol-3-yl)nicotinamide]",inhibition at 0.01 µM,[2]; [5],5 to 10%
same,inhibition at 0.5 µM,[2]; [5],30 to 40%
"CNC(=O)c1ccccc1Nc1cc(Nc2cc(C)c(C3CCN(Cc4ccc5c(c4)CN(N4CCC(=O)NC4=O)C5=O)CC3)cc2OC(C)C)ncc1C(F)(F)F [GT-07663, 2-((2-((4-(1-((2-(2,4-dioxotetrahydropyrimidin-1(2H)-yl)-1-oxoisoindolin-5-yl)methyl)piperidin-4-yl)-2-isopropoxy-5-methylphenyl)amino)-5-(trifluoromethyl)pyridin-4-yl)amino)-N-methylbenzamide]",inhibition at 0.01 µM,"[1]; Table IG1, FAK inhibitor-based",5 to 10%
same,inhibition at 0.5 µM,"[1]; Table IG1, FAK inhibitor-based",40 to 60%
"O=C1CCN(N2C(=O)c3ccc(CN4CCN(C5CCN(c6ncc(C(=O)Nc7ccc(OC(F)(F)Cl)cc7)cc6-c6cc[nH]n6)CC5)CC4)cc3C2=O)C(=O)N1 [GT-08227, N-(4-(chlorodifluoromethoxy)phenyl)-6-(4-(4-((2-(2,4-dioxotetrahydropyrimidin-1(2H)-yl)-1,3-dioxoisoindolin-5-yl)methyl)piperazin-1-yl)piperidin-1-yl)-5-(1H-pyrazol-3-yl)nicotinamide]",inhibition at 0.01 µM,[1]; [4],20 to 30%
same,inhibition at 0.5 µM,[1]; [4],20 to 30%
"Cc1cc(-c2ccc3c4cnccc4n(C)c3c2)cnc1N1CCN(CC2CCN(c3ccc4c(c3)C(=O)N(N3CCC(=O)NC3=O)C4=O)CC2)CC1 [GT-08555, 2-(2,4-dioxotetrahydropyrimidin-1(2H)-yl)-5-(4-((4-(3-methyl-5-(5-methyl-5H-pyrido[4,3-b]indol-7-yl)pyridin-2-yl)piperazin-1-yl)methyl)piperidin-1-yl)isoindoline-1,3-dione]",inhibition at 0.01 µM,"[3]; Table IJ2, Tau inhibitor-based",30 to 40%
same,inhibition at 0.5 µM,"[3]; Table IJ2, Tau inhibitor-based",70 to 80%
same,inhibition at 0.01 µM,"[1]; Table IJ1, Tau inhibitor-based",30 to 40%
same,inhibition at 0.5 µM,"[1]; Table IJ1, Tau inhibitor-based",60 to 70%
"Cc1nc(Nc2ncc(C(=O)Nc3c(C)cccc3Cl)s2)cc(N2CCN(CCO)CC2)n1 [Dasatinib, reference compound]",inhibition at 0.01 µM,[3]; [6],10 to 15%
same,inhibition at 0.5 µM,[3]; [6],40 to 50%
same,inhibition at 0.01 µM,[2]; [5],10 to 15%
same,inhibition at 0.5 µM,[2]; [5],15 to 20%
same,inhibition at 0.01 µM,[1]; [4],0 to 5%
same,inhibition at 0.5 µM,[1]; [4],15 to 20%
"Cc1ccc(C(=O)Nc2ccc(N3CCC(N(C)Cc4ccc5c(c4)C(=O)N(N4CCC(=O)NC4=O)C5=O)CC3)c(C(F)(F)F)c2)cc1C#Cc1cnc2cccnn12 [GT-08221, N-(4-(4-(((2-(2,4-dioxotetrahydropyrimidin-1(2H)-yl)-1,3-dioxoisoindolin-5-yl)methyl)(methyl)amino)piperidin-1-yl)-3-(trifluoromethyl)phenyl)-3-(imidazo[1,2-b]pyridazin-3-ylethynyl)-4-methylbenzamide]",inhibition at 0.01 µM,[3]; [6],-5 to 0%
same,inhibition at 0.5 µM,[3]; [6],50 to 60%
"CN(c1cccc(CNc2nc(Nc3ccc(N4CCC(N5CCN(Cc6ccc7c(c6)CN(N6CCC(=O)NC6=O)C7=O)CC5)CC4)cc3)ncc2C(F)(F)F)c1)S(C)(=O)=O [GT-08144, N-(3-(((2-((4-(4-(4-((2-(2,4-dioxotetrahydropyrimidin-1(2H)-yl)-1-oxoisoindolin-5-yl)methyl)piperazin-1-yl)piperidin-1-yl)phenyl)amino)-5-(trifluoromethyl)pyrimidin-4-yl)amino)methyl)phenyl)-N-methylmethanesulfonamide]",inhibition at 0.01 µM,"[3]; Table IG2, FAK inhibitor-based",30 to 40%
same,inhibition at 0.5 µM,"[3]; Table IG2, FAK inhibitor-based",80 to 100%
"N#Cc1ccc(O[C@H]2CC[C@H](NC(=O)c3ccc(N4CCC(CN5CCN(c6cc(F)c7c(c6)C(=O)N(N6CCC(=O)NC6=O)C7=O)CC5)CC4)nn3)CC2)cc1Cl [GT-05233, N-((1r,4r)-4-(3-chloro-4-cyanophenoxy)cyclohexyl)-6-(4-((4-(2-(2,4-dioxotetrahydropyrimidin-1(2H)-yl)-7-fluoro-1,3-dioxoisoindolin-5-yl)piperazin-1-yl)methyl)piperidin-1-yl)pyridazine-3-carboxamide]",inhibition at 0.01 µM,"[2]; Table IF2, AR inhibitor-based",15 to 20%
same,inhibition at 0.5 µM,"[2]; Table IF2, AR inhibitor-based",20 to 30%
